Assay results reported in a melting point compilation (Tetko et al.; mined from patent text by program, amines drawn as free bases though some values may be those of a salt).
Residues, ends and D or L forms follow the SMILES beside them. *: point of attachment. Cbz = O=C(OCc1ccccc1)*

Structure (SMILES) | melting point [°C]
CC(C)(C)OC(=O)NC(Cc1ccccc1)C(O)CNCC(O)C(Cc1ccccc1)NC(=O)OC1c2ccccc2CC1O (configuration not stated) | 131 to 133
O=Cc1cc(C#Cc2cccc(Br)c2)c[nH]1 | 152 to 156
Oc1ccc(-c2cc(O)ccc2-c2cc3cc(O)ccc3o2)cc1 | 238 to 239
COc1ccc(NN=C2CCC3(CC2)OCCO3)cc1 | 168 to 169
Cc1ccc(S(=O)(=O)N2CCNC2=Nc2ccccc2)cc1 | 174 to 177
O=C(NCCCCCCOC(=O)N1CCC2(CCCC2)CC1)OC1CCN(C(=O)Oc2ccc([N+](=O)[O-])cc2)CC1 | 113 to 114
Clc1ccc(COc2ccc(Cl)cc2C(c2ccccc2)n2ccnc2)c(Cl)c1 (configuration not stated) | 132 to 134
CS(=O)(=O)c1ccc(-c2cc(C#N)c(=O)[nH]c2-c2ccc(F)cc2)cc1 | 294 to 296
O=C(O)c1c[nH]c(=S)n1C1Cc2cc(F)cc(F)c2C1 (configuration not stated) | 230 to 232
COc1ccccc1C1(O)C(O)CC(c2ccccc2)(c2ccccc2)C2CN(C(=O)Cc3ccccc3O)CC21 (configuration not stated) | 188 to 190
CCc1c(Sc2cc(Cl)cc(Cl)c2)c(C(N)=O)nn1CCO | 214 to 216
CC(C)CC(CS)C(N)=O (configuration not stated) | 147 to 154
OC1(C(Cl)Cl)O[C@H](COCc2ccccc2)[C@@H](OCc2ccccc2)[C@H](OCc2ccccc2)[C@H]1OCc1ccccc1 (some centres not stated) | 72 to 73
O=C(Nc1ccc(-c2ncc(-c3cccc(NC(=O)c4ccccn4)c3)[nH]2)cc1)c1ccccn1 | 255 to 257
CCON=C(CC)C1=C(O)CC(c2ccc(Oc3ncc(C(F)(F)F)cc3F)cc2)CC1=O (configuration not stated) | 82 to 82.5
CNCCCN1CCc2cc(OC)c(OC)cc2CC1=O | 68 to 70
CN(C(=O)c1ccccc1N)c1ccccc1 | 127
CS(=O)(=O)SCCCCC(=O)O | 69 to 71
CN1CCCCc2[nH]c3ccccc3c2CC1 | 128 to 131
Cc1ccncc1-c1cncc(OC2SCC(O)C(O)C2O)c1 (configuration not stated) | 201
Nc1ncnc2c1c(-c1cccc(CO)c1)nn2Cc1oc2ccccc2c(=O)c1-c1ccccc1 | 219 to 223
COc1cc(O)ccc1-c1ccc2cc(O)ccc2c1 | 152 to 154
CCOC(=O)c1nc2sc3c(c2c(=O)[nH]1)CCCC3 | 207 to 209
COC(=O)c1ccc(C(O)c2cc3cc(Cl)cnc3n2S(=O)(=O)c2ccc(C(C)C)cc2)cc1 (configuration not stated) | 77
CC(C)(C)c1ccc(C(=O)Nc2cn3cc(-c4ccccc4)ccc3n2)cc1 | 252 to 253
Nc1c2c(nc3cccc(Cl)c13)CCCC2 | 144 to 145

Structure (SMILES) | melting point [°C]
COc1ccc2c(c1)nc(Cn1ccnc1)n2-c1ccccc1 | 104 to 106
O=c1ccc(C(F)(F)F)cn1Cc1c(Cl)cccc1Cl | 74 to 76
O=C1Cc2cc(NC(=O)C(=O)N3CCC(Oc4ccc(F)cc4)CC3)ccc2N1 | 147 to 149
COc1ccc(-n2cc(/C=C(\C#N)C(=O)NS(=O)(=O)c3ccccc3)c(-c3ccc(Cl)c(F)c3)n2)cc1Cl | 263 to 264
O=C1OCC2C3OC(C4CCCCC43)C12 (configuration not stated) | 90 to 91
O=C1c2c(O)ccc(O)c2-c2nn(CCCNCCO)c3ccc(NCCNCCO)c1c23 | 159 to 163
COC(=O)CNC(=O)c1cc2cc(Cl)ccc2[nH]1 | 252 to 254
Cc1cc(Oc2c(Cl)cc(C(F)(F)F)cc2[N+](=O)[O-])n[nH]1 | 120 to 123
COc1ccc(-n2c(-c3cccnc3)nc(SC)c(C#N)c2=O)cc1 | 230 to 233
COc1cc2nc(-c3n[nH]cc3NC(=O)N3CCCCC3)[nH]c2cc1Cl | > 310
COC(=O)c1cn(C)c2cc(OC)c(C(F)(F)F)cc12 | 166 to 170
Oc1ccnc2ccc(Cl)cc12 | 274 to 275
CCN1CCN(c2cccc3ccc(NC(=O)c4ccc(Cl)cc4)cc23)CC1 | 173 to 174
Cc1cc(C(=O)O)ccc1-c1c(C)cccc1C | 172 to 173
OC(Cn1cnnc1)(Cn1cncn1)Cn1cncn1 | 220
CN1C(=O)N2C(=NC1(C)C)N(C(=O)NC1CCCCC1)c1ccccc12 | 114 to 116
COc1cc2c(cc1OC(C)=O)CCC1C2CCC2(C)C1C=CC21OCCO1 (configuration not stated) | 161 to 162
COC(=O)[C@H]1C[C@H](NC(=O)c2cccc(CNC(=O)OC(C)(C)C)c2)c2c(Cl)cc(Cl)cc2N1 (relative stereo) | 222 to 223
CCn1ncc2nc(C(=O)N3CCN(C)CC3)c(-c3ccccc3)nc21 | 170 to 171
CN(C)c1cccc([N+](=O)[O-])c1CC=NNC(N)=O | 156 to 157
COC(=O)COc1ccc(OC)cc1C(=O)OC | 66 to 68.5
COC(=O)CC(=O)c1ccc2c(c1)CCC(=O)N2C | 175 to 176
CC(=O)OC1CSC(Oc2ccc(-c3ccc(C(F)(F)F)cc3)nc2)C(OC(C)=O)C1OC(C)=O (configuration not stated) | 178 to 180
COc1ccc(CCN(C)CCc2ccc(NC(=O)c3cccc4c(=O)c5ccccc5[nH]c34)cc2)cc1 | 179
COc1cc2c(cc1OC)C(Cc1ccncc1)(Cc1ccncc1)CN=C2c1ccccc1 | 168 to 169
Cc1ccc2cc(-c3cccc4ccccc34)nc(N3CCN(C)CC3)c2c1 | 150

Structure (SMILES) | melting point [°C]
CC(C)C[C@H](NC(=O)COc1ccccc1)C(=O)N[C@@H](C(C)C)[C@H](O)c1c(-c2ccc(F)cc2)c1=O | 75 to 79
OCc1cnc2c(F)cccc2c1O | 176 to 178
CCCCCCc1ccnc(-c2ccc(C(N)=O)cc2)n1 | 232 to 233
Cc1c(-c2ccc3sc(=O)[nH]c3c2)nc2ncccn12 | > 290
NC(=O)N(O)Cc1ccc(CCCCCC(F)(F)F)s1 | 94
CCOc1cc(Cn2cc(CCC(=O)O)c(OCC)n2)ccc1OCc1nc(-c2ccccc2)oc1C | 105 to 106
O=C(O)c1cc2c(Cl)ncnc2s1 | > 265
CCCc1cc(=O)oc2c(C=O)c(O)c3c(c12)OC(C)(C)C=C3 | 116 to 117
COc1ccc(S(=O)(=O)Nc2ccccc2-c2ccc(F)cc2C(C)O)cc1 (configuration not stated) | 137 to 138
O=C(Nc1ccc(OCCN2CCOCC2)c2ccccc12)c1cc(F)cc(OC2CCOCC2)c1 | 75 to 77
Cc1ccc(-c2cnc(N)c([N+](=O)[O-])c2)cc1 | 183 to 184
COC(=O)c1ccc(-c2ccc(-c3ccccc3)c(-c3ccc4c(c3)C(C)(C)CCC4(C)C)c2)cn1 | 160 to 162
COc1ccc2c(N3CCCNCC3)noc2c1 | 74 to 75
CN(C(=O)OCc1ccccc1)c1ccc([N+](=O)[O-])cc1O | 192
COC(=O)c1cc(Oc2ccc(F)cc2F)ncc1N | 102 to 104
O=C(Nc1cc(Cl)cc(Cl)c1)Nc1ccc(Br)cc1-c1nnn[nH]1 | 263 to 264
O=C1Cc2cccc(OCc3ccccc3)c2N1 | 140 to 142
O=C1Cc2ccccc2C(c2ccccc2)CN1 (configuration not stated) | 154 to 155
NC(=NO)c1ccc(NC(=O)CC(=O)N2CCC(OCC(=O)O)CC2)cc1 | 133 to 135
N[C@H]1CC[C@@H](C(=O)N2CCC(c3[nH]nc4c3C(=O)c3c(NC(=O)NN5CCOCC5)cccc3-4)CC2)CC1 | 202 to 204
CC12CCC(C(=NO)C1=O)C(C)(C)O2 (configuration not stated) | 158 to 159
Cn1cnnc1C(N)(c1ccc(C#N)cc1)c1ccc2c(c1)c(-c1cccc(Cl)c1)nc1nnnn12 (configuration not stated) | 194
CCCCCCCCCC1SC(c2cccnc2)NC1=O (configuration not stated) | 90 to 95
CS(=O)(=O)c1ccc(Cl)cc1C1NC(=O)NC1=O (configuration not stated) | 238 to 240
CCCC12CCC(c3ccc(C#N)c(F)c3)(CC1)CC2 | 63
CCO/C=C1\SC(=S)N(C)C1=O | 110 to 111

Structure (SMILES) | melting point [°C]
CCCCc1ncc(/C=C(\Cc2cccs2)C(=O)O)n1Cc1ccccc1C#N | 210 to 212
O=C(c1ccc(Br)cc1)C(Br)C(Br)c1cccc(Br)c1 (configuration not stated) | 150 to 152
CC(C)(C)N1CC2(CCN(Cc3ccccc3)CC2)OC1=O | 110 to 112
O=C1NC2(NC1=O)Oc1ccccc1O2 | 202
Cc1cc2c3c(cccc3c1Br)C(=O)N(O)C2=O | 255 to 257
Cc1c(CC(=O)N[C@@H](CO)C(=O)O)cc(-c2ccc(S(C)(=O)=O)cc2)n1-c1ccccc1 | 80 to 83
COC(=O)C(Cc1c[nH]c2ccccc12)NC(=O)C(CCC(N)=O)NC(=O)OCc1ccccc1 (stereo not drawn) (Cbz-Gln-Trp-OMe; configuration not given here) | 197 to 198
CCCc1[nH]c2cc(C(=O)OC)ccc2c1C(=O)COC | 127 to 129
CC(=O)Nc1cc(C(F)(F)F)no1 | 108 to 110
CCCc1nc(C=O)cc(N)c1F | 113 to 114
CC1(C)CC(N2CCCCCC2=O)CC(C)(C)N1CCO | 141 to 142
CC1(C)CC(=O)c2c(C3CCCCC3)sc(C#N)c2C1 | 129 to 132
COc1ccc(-n2c(=O)[nH]c3c(C(N)=O)nc(-c4cccc(O)c4)nc32)cc1 | 386 to 388
Cc1nc2c(N)nc3cc(OCCC4CCN(C(=O)C5CCCC5)CC4)ccc3c2n1CC(C)C | 236 to 238
CC(C)(C)c1cc(-c2ccc(C(=O)O)cc2)cc(C(C)(C)C)c1O | > 240
c1ccc(N2c3ccccc3[C@@H]3CNCC[C@H]32)cc1 | 74 to 76
N/C(=C1/Sc2ccccc2C1=O)c1ccccc1N | 186 to 187
Cc1cc(F)ccc1-c1cc(N2CCSCC2)ncc1C(N)=O | 198 to 202
CSc1cc(-c2ccc(C(F)(F)F)cc2)ccc1C#N | 128 to 129
CC(C)c1ccc(N(Cc2ccc(N(C)C)nc2)C(=O)C2CCCc3c(O)cccc32)cc1 (configuration not stated) | 187
CCCCCCC(C)Oc1ccc(N=Cc2ccccc2)cc1 (configuration not stated) | 47.3
CCOC(=O)c1c(O)c2ccc(C)nc2n(C)c1=O | 143 to 145
COc1cc(N)c(Cl)cc1C(=O)NN1CCN(C)CC1 | 220
O=C(NN1CCc2ccccc2C(Oc2ccc(C(F)(F)F)cc2)C1)C(F)(F)F (configuration not stated) | 192 to 195
